Inconclusive results and toxic doses are left out.
System: CD2F1 mice, L1210 leukemia ip, survival T/C
Test: NCI In Vivo Anticancer Drug Screen. Data for tumor model L1210 Leukemia (intraperitoneal) in CD2F1 (CDF1) mice
Settings: endpoint: mean survival time, higher = longer survival
Method in brief: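 Mice carrying a transplanted tumor received test compound or vehicle alone. The value is the measurement in the treated group divided by that in the vehicle-treated control group.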

[1] = dose: 75.0 mg/kg/injection, schedule: Q01DX001 (ip), vehicle: saline
[2] = dose: 100.0 mg/kg/injection, schedule: Q01DX009 (ip), vehicle: saline with Tween-80
[3] = dose: 100.0 mg/kg/injection, schedule: Q04DX003 (ip), vehicle: saline
[4] = dose: 200.0 mg/kg/injection, schedule: Q01DX009 (ip), vehicle: saline with Tween-80
[5] = dose: 200.0 mg/kg/injection, schedule: Q04DX003 (ip), vehicle: saline
[6] = dose: 400.0 mg/kg/injection, schedule: Q01DX009 (ip), vehicle: saline with Tween-80
[7] = dose: 400.0 mg/kg/injection, schedule: Q04DX003 (ip), vehicle: saline
[8] = dose: 100.0 mg/kg/injection, schedule: Q04DX002 (ip), vehicle: saline
[9] = dose: 200.0 mg/kg/injection, schedule: Q04DX002 (ip), vehicle: saline with Tween-80
[10] = dose: 400.0 mg/kg/injection, schedule: Q04DX002 (ip), vehicle: saline with Tween-80
[11] = dose: 50.0 mg/kg/injection, schedule: Q01DX009 (ip), vehicle: saline with Tween-80
[12] = dose: 100.0 mg/kg/injection, schedule: Q01DX001 (ip), vehicle: saline with Tween-80
[13] = dose: 100.0 mg/kg/injection, schedule: Q04DX002 (ip), vehicle: saline with Tween-80
[14] = dose: 200.0 mg/kg/injection, schedule: Q01DX001 (ip), vehicle: saline with Tween-80
[15] = dose: 400.0 mg/kg/injection, schedule: Q01DX001 (ip), vehicle: saline with Tween-80
[16] = dose: 100.0 mg/kg/injection, schedule: Q01DX001 (ip), vehicle: saline
[17] = dose: 200.0 mg/kg/injection, schedule: Q01DX001 (ip), vehicle: saline
[18] = dose: 400.0 mg/kg/injection, schedule: Q01DX001 (ip), vehicle: saline
[19] = dose: 100.0 mg/kg/injection, schedule: Q04DX003 (ip), vehicle: saline with Tween-80
[20] = dose: 200.0 mg/kg/injection, schedule: Q04DX003 (ip), vehicle: saline with Tween-80
[21] = dose: 400.0 mg/kg/injection, schedule: Q04DX003 (ip), vehicle: saline with Tween-80

Q: Which T/C [1] does the source give for COc1ccc(-c2cc(=O)c3ccc(O)cc3o2)cc1 here?
A: 104 % of control

Q: What about the T/C (dose: 150.0 mg/kg/injection, schedule: Q01DX001 (ip), vehicle: saline) of the same molecule?
A: 90 % of control

Q: What about the T/C (dose: 300.0 mg/kg/injection, schedule: Q01DX001 (ip), vehicle: saline) of the same molecule?
A: 104 % of control

Q: How did the T/C [2] turn out when O=S(=O)(Nc1ccc2ccccc2c1)c1ccccc1 was run?
A: 98 % of control

Q: And the T/C [3]?
A: 104 % of control

Q: And the T/C [4]?
A: 98 % of control

Q: What about the T/C [5] of the same molecule?
A: 101 % of control

Q: What about the T/C [6] of the same molecule?
A: 98 % of control

Q: What about the T/C [7] of the same molecule?
A: 96 % of control

Q: How did the T/C (dose: 12.5 mg/kg/injection, schedule: Q04DX002 (ip), vehicle: saline with Tween-80) turn out when N#CC(=C=[N-])C(C#N)(C#N)Cc1ccccc1.[C-]#[O+].[C-]#[O+].[Fe+6].[c-]1[c-][c-][cH-][c-]1 was run?
A: 93 % of control

Q: And the T/C (dose: 25.0 mg/kg/injection, schedule: Q04DX002 (ip), vehicle: saline with Tween-80)?
A: 97 % of control

Q: What about the T/C (dose: 50.0 mg/kg/injection, schedule: Q04DX002 (ip), vehicle: saline with Tween-80) of the same molecule?
A: 97 % of control

Q: Which T/C (dose: 25.0 mg/kg/injection, schedule: Q04DX002 (ip), vehicle: saline) does the source give for O=C1C=C(O)c2cc(Br)ccc2C1=O.[Ag] here?
A: 106 % of control

Q: And the T/C (dose: 50.0 mg/kg/injection, schedule: Q04DX002 (ip), vehicle: saline)?
A: 113 % of control

Q: And the T/C [8]?
A: 97 % of control

Q: What does the source list for CC(=O)c1c(C)c2c(C)cc3oc(=O)c(C(C)=O)c(C)c3c2oc1=O?
A: T/C [9]: 92 % of control; T/C [10]: 87 % of control

Q: For CN(C(=O)C(=O)c1ccccc1NC(=O)c1ccc(Cl)cc1)c1ccccc1, which T/C (dose: 25.0 mg/kg/injection, schedule: Q04DX003 (ip), vehicle: Klucel (hydroxypropylcellulose) (HPC)) is on record?
A: 102 % of control

Q: What about the T/C (dose: 50.0 mg/kg/injection, schedule: Q04DX003 (ip), vehicle: Klucel (hydroxypropylcellulose) (HPC)) of the same molecule?
A: 106 % of control

Q: And the T/C (dose: 100.0 mg/kg/injection, schedule: Q04DX003 (ip), vehicle: Klucel (hydroxypropylcellulose) (HPC))?
A: 104 % of control

Q: What does the source list for CC/C=C(\CC)CO?
A: T/C [11]: 100 % of control; T/C [2]: 95 % of control; T/C [4]: 100 % of control

Q: How did the T/C [12] turn out when COc1cc2c(c(OC)c1OC)-c1ccc(SC)c(=O)cc1C(N=C(NC1OCC(OC(C)=O)C(OC(C)=O)C1OC(C)=O)SN(NC(=O)OCc1ccccc1)C(=O)OCc1ccccc1)CC2 (stereo not given) was run?
A: 92 % of control

Q: For O=c1ccc(OS(=O)(=O)c2ccccc2)n[nH]1, which T/C [13] is on record?
A: 95 % of control

Q: And the T/C [9]?
A: 87 % of control

Q: And the T/C [10]?
A: 104 % of control

Q: What does the source list for CCOC/C=C/C1CCCCC1?
A: T/C [11]: 117 % of control; T/C [2]: 97 % of control; T/C [4]: 97 % of control

Q: With CCOC(=O)CNc1nc(Cl)nc(NCC(=O)OCC)n1 as the molecule, how does the T/C [12] read?
A: 87 % of control

Q: And the T/C [14]?
A: 89 % of control

Q: And the T/C [15]?
A: 91 % of control

Q: What does the source list for O=CC(Cc1ccccc1)CC(O)c1ccccc1 (stereo not given)?
A: T/C [12]: 95 % of control; T/C [2]: 107 % of control; T/C [14]: 88 % of control; T/C [4]: 96 % of control; T/C [15]: 91 % of control; T/C [6]: 96 % of control

Q: CCC(=O)c1cc2c(cc1CC)C(C)(C)CCC2(C)C was tested. Which T/C (dose: 50.0 mg/kg/injection, schedule: Q01DX001 (ip), vehicle: saline) did it give?
A: 93 % of control

Q: What about the T/C [16] of the same molecule?
A: 93 % of control

Q: And the T/C [3]?
A: 101 % of control

Q: And the T/C [17]?
A: 93 % of control

Q: And the T/C [5]?
A: 97 % of control

Q: And the T/C [18]?
A: 91 % of control

Q: What about the T/C [7] of the same molecule?
A: 90 % of control

Q: Which results are given for CC(=O)C(C(C)=O)C(c1ccccc1Cl)C(C(C)=O)C(C)=O?
A: T/C [2]: 98 % of control; T/C [4]: 102 % of control; T/C [6]: 95 % of control

Q: For COC(=O)C1(C)CCCC2(C)C1CCC13OCC(CC21)C1(C(C)C)OC31 (stereo not given), which T/C [19] is on record?
A: 101 % of control

Q: What about the T/C [20] of the same molecule?
A: 100 % of control

Q: And the T/C [21]?
A: 95 % of control

Q: What does the source list for CCCN(CCC)S(=O)(=O)c1ccc(NC(=O)OC2CCCCCC2)cc1?
A: T/C [16]: 104 % of control; T/C [17]: 108 % of control; T/C [18]: 104 % of control

Q: What does the source list for Cc1ccc(C2(C(=O)O)CC2)cc1?
A: T/C [19]: 98 % of control; T/C [20]: 98 % of control; T/C [21]: 96 % of control

Q: With CC(=O)NC1=C(Sc2ccc([N+](=O)[O-])cc2)C(=O)c2ccccc2C1=O as the molecule, how does the T/C [1] read?
A: 98 % of control

Q: Which results are given for O=C1c2ccccc2C(=O)N1CCS(=O)(=O)O?
A: T/C [13]: 97 % of control; T/C [9]: 94 % of control; T/C [10]: 94 % of control

Q: Which results are given for CC1(C)N=C(N)N=C(N)N1c1ccc(OCC(=O)Nc2ccc(S(=O)(=O)F)cc2)cc1?
A: T/C (dose: 50.0 mg/kg/injection, schedule: Q01DX009 (ip), vehicle: saline): 111 % of control; T/C (dose: 100.0 mg/kg/injection, schedule: Q01DX009 (ip), vehicle: saline): 109 % of control; T/C (dose: 200.0 mg/kg/injection, schedule: Q01DX009 (ip), vehicle: saline): 115 % of control; T/C (dose: 300.0 mg/kg/injection, schedule: Q01DX009 (ip), vehicle: saline): 115 % of control; T/C (dose: 400.0 mg/kg/injection, schedule: Q01DX009 (ip), vehicle: saline): 121 % of control

Q: Which results are given for O=[N+]([O-])c1ccc(Sc2ncnc3nc[nH]c23)c([N+](=O)[O-])c1?
A: T/C (dose: 16.6 mg/kg/injection, schedule: Q01DX005 (ip), vehicle: other): 154 % of control; T/C (dose: 25.0 mg/kg/injection, schedule: Q01DX005 (ip), vehicle: other): 167 % of control; T/C (dose: 37.5 mg/kg/injection, schedule: Q01DX005 (ip), vehicle: other): 162 % of control; T/C (dose: 56.3 mg/kg/injection, schedule: Q01DX005 (ip), vehicle: other): 167 % of control

Q: What does the source list for CC(=O)Oc1ccc(Nc2c3ccccc3nc3ccccc23)cc1?
A: T/C (dose: 44.0 mg/kg/injection, schedule: Q01DX001 (ip), vehicle: saline with Tween-80): 119 % of control; T/C (dose: 44.0 mg/kg/injection, schedule: Q01DX009 (ip), vehicle: saline with Tween-80): 155 % of control; T/C (dose: 66.0 mg/kg/injection, schedule: Q01DX001 (ip), vehicle: saline with Tween-80): 109 % of control; T/C (dose: 66.0 mg/kg/injection, schedule: Q01DX009 (ip), vehicle: saline with Tween-80): 94 % of control; T/C [12]: 152 % of control; T/C [2]: 88 % of control; T/C [13]: 177 % of control

Q: With C1CCC2C(C1)CC1CCCCC1C2C1C2CCCCC2CC2CCCCC21 (stereo not given) as the molecule, how does the T/C [19] read?
A: 97 % of control

Q: And the T/C [20]?
A: 100 % of control

Q: And the T/C [21]?
A: 96 % of control

Q: For CCC[CH2][Sn-]([CH2]CCC)([CH2]CCC)[O]C(=O)C(C)C, which T/C (dose: 375.0 micrograms/kg/injection, schedule: Q01DX009 (ip), vehicle: saline) is on record?
A: 93 % of control

Q: And the T/C (dose: 750.0 micrograms/kg/injection, schedule: Q01DX009 (ip), vehicle: saline)?
A: 100 % of control

Q: And the T/C (dose: 1500.0 micrograms/kg/injection, schedule: Q01DX009 (ip), vehicle: saline)?
A: 96 % of control

Q: Which results are given for O=C(Nc1cccc2c1C(=O)c1ccc(Nc3cc(NC(=O)c4ccccc4)c4c(c3)C(=O)c3ccccc3C4=O)cc1C2=O)c1ccccc1?
A: T/C [2]: 106 % of control; T/C [19]: 102 % of control; T/C [4]: 102 % of control; T/C [20]: 102 % of control; T/C [6]: 119 % of control; T/C [21]: 96 % of control

Q: Which results are given for C1COC2(CCC3(CC2)OCCO3)O1?
A: T/C [2]: 102 % of control; T/C (dose: 100.0 mg/kg/injection, schedule: Q04DX003 (ip), vehicle: saline sonified): 101 % of control; T/C [4]: 102 % of control; T/C (dose: 200.0 mg/kg/injection, schedule: Q04DX003 (ip), vehicle: saline sonified): 101 % of control; T/C [6]: 103 % of control; T/C (dose: 400.0 mg/kg/injection, schedule: Q04DX003 (ip), vehicle: saline sonified): 100 % of control

Q: Which results are given for Cc1ccc(C(=O)CCC(=O)O)c(C)c1?
A: T/C [2]: 100 % of control; T/C [4]: 105 % of control; T/C [6]: 98 % of control

Q: For N#CC1(C#N)OC(C#N)(C#N)C2C1C=CC1C2C1(C#N)C#N (stereo not given), which T/C (dose: 6.25 mg/kg/injection, schedule: Q01DX001 (ip), vehicle: saline with Tween-80) is on record?
A: 108 % of control

Q: And the T/C (dose: 12.5 mg/kg/injection, schedule: Q01DX001 (ip), vehicle: saline with Tween-80)?
A: 97 % of control

Q: What about the T/C (dose: 25.0 mg/kg/injection, schedule: Q01DX001 (ip), vehicle: saline with Tween-80) of the same molecule?
A: 97 % of control

Q: For NC1=C(N)C(=O)NC(N)N1 (stereo not given), which T/C [8] is on record?
A: 102 % of control

Q: And the T/C (dose: 200.0 mg/kg/injection, schedule: Q04DX002 (ip), vehicle: saline)?
A: 102 % of control

Q: What about the T/C (dose: 400.0 mg/kg/injection, schedule: Q04DX002 (ip), vehicle: saline) of the same molecule?
A: 100 % of control

Source: PubChem BioAssay AID256 (DTP/NCI, 2004)
